Two compounds from patent EP4467141A1, “PYRAZOLO-QUINOLINES AS SELECTIVE INHIBITORS OF GENOTOXIC STRESS-INDUCED IKK/NF- KB PATHWAYS FOR CANCER THERAPY” (Max-Delbrück-Centrum für Molekulare Medizin in der …, priority 2023, dated 2024) can be followed below.

Holding throughout (assay): Kinase panel study
Holding throughout (assay type): biochemical
Conditions in all cases: read-out: Percentage of inhibition; for inhibition at 1 µM: 1000nM; for inhibition at 10 µM: 10000nM

One assay deals with T1, DYRK3 (Homo sapiens, UniProt O43781).
T1 construct: purchased Thermo Fisher Scientific
T1 sequence (O43781 1-588): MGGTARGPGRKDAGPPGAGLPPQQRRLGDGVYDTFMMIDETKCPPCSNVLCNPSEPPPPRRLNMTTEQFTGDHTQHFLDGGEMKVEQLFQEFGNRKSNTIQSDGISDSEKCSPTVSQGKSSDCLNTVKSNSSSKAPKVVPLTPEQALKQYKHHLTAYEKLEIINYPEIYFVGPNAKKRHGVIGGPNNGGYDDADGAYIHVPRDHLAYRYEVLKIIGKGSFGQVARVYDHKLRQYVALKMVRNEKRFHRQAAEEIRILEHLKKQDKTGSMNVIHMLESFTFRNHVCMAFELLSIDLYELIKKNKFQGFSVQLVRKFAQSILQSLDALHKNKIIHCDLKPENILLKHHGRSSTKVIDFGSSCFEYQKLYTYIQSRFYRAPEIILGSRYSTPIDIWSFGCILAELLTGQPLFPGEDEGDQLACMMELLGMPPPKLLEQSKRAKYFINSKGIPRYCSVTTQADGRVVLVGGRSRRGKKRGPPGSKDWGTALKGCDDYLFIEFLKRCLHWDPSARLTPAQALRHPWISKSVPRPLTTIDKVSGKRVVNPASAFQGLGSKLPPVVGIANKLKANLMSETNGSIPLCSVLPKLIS
Summed up:
(§1)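 Kinase inhibition was determined by a contract provider in cell-free ZLyte or Adapta assays. Results are expressed as % inhibition at 10 or 1 µM.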

Another assay deals with T2, PDGFRA D842V (Homo sapiens, UniProt P16234, D842V).
T2 construct: purchased Thermo Fisher Scientific
Summed up: as §1

The target of another assay is T3, NEK1 (Homo sapiens, UniProt Q96PY6).
T3 construct: purchased Thermo Fisher Scientific
T3 sequence (Q96PY6 1-1258): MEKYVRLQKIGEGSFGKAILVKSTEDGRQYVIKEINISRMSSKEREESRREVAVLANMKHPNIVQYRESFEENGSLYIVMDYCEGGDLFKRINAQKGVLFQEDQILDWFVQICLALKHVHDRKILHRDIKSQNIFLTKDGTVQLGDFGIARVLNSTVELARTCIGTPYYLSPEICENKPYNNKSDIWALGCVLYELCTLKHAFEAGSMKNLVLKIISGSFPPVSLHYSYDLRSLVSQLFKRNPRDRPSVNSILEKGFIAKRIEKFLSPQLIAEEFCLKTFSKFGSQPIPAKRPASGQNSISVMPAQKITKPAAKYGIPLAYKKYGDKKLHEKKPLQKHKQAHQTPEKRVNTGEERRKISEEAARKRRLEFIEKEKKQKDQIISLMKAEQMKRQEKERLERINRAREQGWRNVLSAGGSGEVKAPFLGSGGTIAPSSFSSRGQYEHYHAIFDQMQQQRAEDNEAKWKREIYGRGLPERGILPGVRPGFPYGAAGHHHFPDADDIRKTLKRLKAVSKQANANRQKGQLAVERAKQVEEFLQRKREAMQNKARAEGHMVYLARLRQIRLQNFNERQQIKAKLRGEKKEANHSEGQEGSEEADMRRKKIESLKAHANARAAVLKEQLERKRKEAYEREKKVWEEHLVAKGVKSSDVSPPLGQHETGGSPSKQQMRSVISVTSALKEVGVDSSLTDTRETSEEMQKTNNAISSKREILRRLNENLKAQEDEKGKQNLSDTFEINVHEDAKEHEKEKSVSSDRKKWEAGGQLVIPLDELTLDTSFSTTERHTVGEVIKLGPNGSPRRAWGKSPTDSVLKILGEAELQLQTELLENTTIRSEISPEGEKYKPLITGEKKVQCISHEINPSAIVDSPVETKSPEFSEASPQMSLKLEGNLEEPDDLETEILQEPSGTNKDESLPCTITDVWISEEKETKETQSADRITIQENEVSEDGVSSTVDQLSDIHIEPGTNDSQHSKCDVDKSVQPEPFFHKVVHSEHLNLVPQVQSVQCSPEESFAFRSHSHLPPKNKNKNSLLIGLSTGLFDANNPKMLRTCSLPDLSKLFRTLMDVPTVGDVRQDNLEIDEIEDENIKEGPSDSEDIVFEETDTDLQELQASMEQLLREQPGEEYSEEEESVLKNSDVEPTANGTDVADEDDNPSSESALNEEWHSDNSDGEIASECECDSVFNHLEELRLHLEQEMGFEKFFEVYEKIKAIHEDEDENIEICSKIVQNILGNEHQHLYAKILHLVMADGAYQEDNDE
Summed up: as §1

T2 sequence (P16234 24-1089 D842V): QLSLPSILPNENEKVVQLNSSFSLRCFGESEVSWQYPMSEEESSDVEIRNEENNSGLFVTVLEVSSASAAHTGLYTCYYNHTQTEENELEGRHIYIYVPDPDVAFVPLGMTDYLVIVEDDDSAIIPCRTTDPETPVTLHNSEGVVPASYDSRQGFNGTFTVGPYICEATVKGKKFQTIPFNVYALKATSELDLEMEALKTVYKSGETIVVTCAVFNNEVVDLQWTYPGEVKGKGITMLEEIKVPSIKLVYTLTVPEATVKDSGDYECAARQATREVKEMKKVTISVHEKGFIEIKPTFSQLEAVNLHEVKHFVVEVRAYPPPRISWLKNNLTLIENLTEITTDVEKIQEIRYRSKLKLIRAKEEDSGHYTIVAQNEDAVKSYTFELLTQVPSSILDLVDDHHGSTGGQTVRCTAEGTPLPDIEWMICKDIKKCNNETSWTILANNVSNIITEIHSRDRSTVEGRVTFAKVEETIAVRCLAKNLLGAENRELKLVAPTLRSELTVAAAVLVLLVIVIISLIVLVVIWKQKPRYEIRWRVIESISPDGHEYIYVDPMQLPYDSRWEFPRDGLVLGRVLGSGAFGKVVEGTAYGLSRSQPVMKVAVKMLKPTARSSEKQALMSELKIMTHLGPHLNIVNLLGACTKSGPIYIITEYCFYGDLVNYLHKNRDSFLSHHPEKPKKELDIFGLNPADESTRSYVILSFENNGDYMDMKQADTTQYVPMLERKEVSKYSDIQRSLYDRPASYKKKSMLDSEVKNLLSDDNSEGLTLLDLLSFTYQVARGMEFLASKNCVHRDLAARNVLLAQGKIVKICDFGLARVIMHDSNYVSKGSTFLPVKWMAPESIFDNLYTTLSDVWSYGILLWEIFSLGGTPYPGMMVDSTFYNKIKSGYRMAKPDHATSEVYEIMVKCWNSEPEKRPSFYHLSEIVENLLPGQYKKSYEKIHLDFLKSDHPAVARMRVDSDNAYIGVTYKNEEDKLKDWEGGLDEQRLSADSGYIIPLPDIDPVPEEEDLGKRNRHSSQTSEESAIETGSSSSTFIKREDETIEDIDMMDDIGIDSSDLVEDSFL

As to `COc1ccc2c(c1OC)c(=O)n1c3ccc(O)cc3c3ccnc2c31` [MW01, 5-Hydroxy-10,11-dimethoxy-9H-benzo[c]indolo[3,2,1-ij][1,5]naphthyridin-9-one], the inhibition (commonly the relative decrease from the control value, in per cent) at 1 µM at DYRK3 was determined as 17%; on PDGFRA D842V, 3%; at NEK1, 23%. Also, the values for the inhibition at 10 µM on DYRK3, on PDGFRA D842V and on NEK1 were 43%, 35% and 58%, respectively.
As to `COc1ccc2cc3c(N)nn(C(=O)c4cccc(N(C)C)c4)c3nc2c1` [MW05, (3-Amino-7-methoxypyrazolo[3,4-b]quinolin-1-yl)-[3-(dimethylamino)phenyl]methanone], the values for the inhibition at 1 µM at DYRK3, on PDGFRA D842V and at NEK1 were 5%, -4% and -1%, respectively. Also, the inhibition at 10 µM on DYRK3 is 7%; on PDGFRA D842V it was -2%; on NEK1, 6%.
